Columns and labels:
[1] = system: C. acnes; settings: concentrations of 6.9 mM (1 mg/mL) and 8.6 mM (1 mg/mL); cited from earlier work
[2] = system: 5-alpha reductase type 1; assay: Expression of 5-alpha reductase type 1 in cultured human keratinocytes (real-time PCR); format: cell-based; settings: Testosterone 1.10^-8 mol/L, 24 hours; compared to the baseline control, P<0.05
Procedure: The objective of the test was to evaluate the effects of P19/7 on the expression of 5-alpha reductase type 1 in cultured human keratinocytes. The enzyme 5-alpha-reductase […] acts in the conversion of testosterone into dihydrotestosterone (DHT), a steroid responsible for modulating sebaceous secretion.
To carry out the assay, commercially obtained human keratinocytes (Rio de Janeiro Cell Bank—BCRJ) were cultivated in specific culture media and maintained in a humid incubator at 37° C. containing 5% CO2. When they reached confluence (3rd to 5th passage), cells were seeded in a 6-well plate and incubated with 0.0049% (w/v) P19/7+Testosterone (1.10^−8 mol/L) or Testosterone (1.10^−8 mol/L) for a period of 24 hours. After 24 hours of incubation, RNA was extracted using the PureLink RNA Mini Kit (Thermo Fisher) and quantified using the NanoDrop Lite spectrophotometer (Thermo Scientific). Tests were performed on a StepOnePlus device (Applied Byosystems). To perform real-time PCR, a commercially available analysis system was used (TaqMan® Gene Expression Assays; SRD5A1: (HS00971643_G1, 5-alpha reductase type 1); B2M: Hs00984230_m1; Applied Biosystems), with primers and probes based on sequence consensus using the TaqMan® RNA-to-CT™ 1-step kit (Applied Byosystems). […] Gene expression of 5-alpha reductase was calculated according to Pfaffl (2001).

Compound | inhibitory effect on the growth of C. acnes [1] | increase of relative expression of type 1 5-alpha-reductase [2] [%]
CCCCCCCC(=O)O [caprylic acid] | no apparent inhibitory effect | –
C[C@]12CC[C@H]3[C@@H](CCC4=CC(=O)CC[C@@]43C)[C@@H]1CC[C@@H]2O [testosterone, Testosterone] | – | 13

— patent US20240382399A1, “ANTISEBOGENIC COMPOSITION, FORMULATION AND USE OF THE COMPOSITION” (CHEMYUNION LTDA., priority 2021, published 2024)
